Here are results for one compound from patent US20160376374A1, “ANTIBODIES TO CEACAM1 AND KINASE INHIBITORS FOR TREATING BRAF-MUTATED CELLS” (TEL HASHOMER MEDICAL RESEARCH INFRASTRUCTURE AND SERVICES …, priority 2014, published 2016).

Data set [1] deals with CEACAM1 expression on B-Raf V600E cells (526mel, 624mel). Kind of data set: CEACAM1 expression on cells by FACS, mutated B-Raf cells. The format is cell-based, human. As to the method: Total RNA was extracted from 1.0*10^6 melanoma cells with TRIZOL. cDNA was generated with standard reverse transcriptase. Real time PCR was performed with CEACAM1-specific primers and compared to glyceraldehyde 3-phosphate dehydrogenase (GAPDH) tested as a control. Cycle threshold (Ct) values above 36 were considered as minimal or no expression. B-Raf genotype was determined by direct sequencing of amplified fragment from genomic DNA that contains the codon for position 600 of the B-Raf protein. Statistical analysis of the correlation between CEACAM1 expression (negative or positive) with the mutation status (positive=V600E, or negative=wild type) was performed by Fisher exact test.
Cells were then tested for CEACAM1 expression using MRG1 (murine antibody to human CEACAM1) in flow cytometry as described above. Total RNA was extracted with TRIZOL and cDNA was generated with a reverse transcriptase, according to routine protocols.

The subject of data set [2] is B-Raf W.T. (076mel, 013mel) cells. Kind of data set: MAPK activity by immunoblotting for phosphorylated ERK1/2, B-Raf W.T. cells. Format: cell-based. As to conditions: B-Raf W.T. cells 076mel, 1 μM, 48 hours, FIG. 2. As to the method:
(§1) MAPK activity was measured in B-Raf V600E (624mel, sk-mel-5) and B-Raf W.T. (076mel, 013mel) cell samples by immunoblotting for phosphorylated ERK1/2 (pERK, Thr202/Tyr204), total ERK1/2 and actin after 48 hours of exposure to vemurafenib (1 μM).

In data set [3] the test system is B-Raf V600E (624mel, sk-mel-5) cells. The data set can be described thus: MAPK activity by immunoblotting for phosphorylated ERK1/2, B-Raf V600E cells. The format is cell-based. As to the method:
as §1
(§2) MAPK activity was measured in vemurafenib-sensitive and vemurafenib-resistant B-Raf V600E (624mel) cell samples by immunoblotting for phosphorylated ERK1/2 (pERK, Thr202/Tyr204), total ERK1/2 and actin after 24 hours of exposure to 160 nM vemurafenib.
(Immunoblotting shows a protein as a band on a membrane.)

The subject of data set [4] is vemurafenib-resistant B-Raf V600E (624mel) cells. The data set can be described thus: MAPK activity by immunoblotting for phosphorylated ERK1/2, vemurafenib-resistant cells. The format is cell-based. The following applies: vemurafenib-resistant 624mel; 160 nM, 24 hours; FIG. 4B. As for the experimental part: Two vemurafenib-sensitive B-Raf V600E cell samples (526mel, 624mel) and vemurafenib-resistant cell lines derived therefrom were incubated for 2 days with 1 μM vemurafenib. Cells were then analyzed for CEACAM1 protein expression by FACS as described above. Vemurafenib-resistant cell lines were generated by gradual increase of the inhibitor's concentration in culture, up to 0.32 μM.
as §2

Data set [5] deals with B-Raf V600E 526mel melanoma cells. Kind of data set: Determined IC50 of vemurafenib used to generate resistant melanoma cells. Format: cell-based. As to the method: B-Raf V600E 526mel melanoma cells were cultured in the presence of 1 μM vemurafenib. Cultivation was performed in RPMI 1640 supplemented with 1 mM Na-Pyruvate, 1 mM Pen-Strep, 1 mM L-Glutamine, 1 mM non-essential amino acids, and 10% heat inactivated fetal calf serum. […] Cells were then tested for CEACAM1 expression using MRG1 (murine antibody to human CEACAM1) in flow cytometry as described above. Total RNA was extracted with TRIZOL and cDNA was generated with a reverse transcriptase, according to routine protocols.

Data set [6] deals with CEACAM1 expression on B-Raf W.T. cells (076mel). The data set can be described thus: CEACAM1 expression on cells by FACS, W.T. B-Raf cells. The format is cell-based, human. As to conditions: 076mel (W.T. B-Raf); 0.1 μM and 1 μM, 2 to 48 hours; FIG. 3A. For orientation: A flow cytometer gives signals particle by particle.
Data set [7] relates to B-Raf V600E cell samples (526mel, 624mel) with cytotoxic T cells. The data set can be described thus: Killing of melanoma cells by cytotoxic T cells, LDH release. The format is cell-based. As to conditions: pre-incubated with 1 μM, overnight, effector-target ratio 5:1, FIG. 7. As for the experimental part: Melanoma cells were pre-incubated with 1 μM vemurafenib and then co-incubated overnight with HLA-A2 matched antigen-matched T cells in effector-target ratio of 5:1. Cell killing was determined by LDH release.

Data set [8] has as its system CEACAM1 expression on sk-mel-2 cells (W.T. B-Raf, mutated N-Ras). The data set can be described thus: CEACAM1 expression on cells by FACS, W.T. B-Raf / mutated N-Ras cells. The following applies: sk-mel-2 (W.T. B-Raf, mutated N-Ras); 1 μM; FIG. 3C.
Experimental: At each time point, CEACAM1 expression on the cells was determined by FACS. Volume equivalents of DMSO (vehicle) were used as control.

Each structure is given as a SMILES string.

One may read the IC50 as the concentration at which inhibition is half-maximal. In the case of `CCCS(=O)(=O)Nc1ccc(F)c(C(=O)c2c[nH]c3ncc(-c4ccc(Cl)cc4)cc23)c1F` [vemurafenib, N-(3-{[5-(4-chlorophenyl)-1H-pyrrolo[2,3-b]pyridin-3-yl]carbonyl}-2,4-difluorophenyl)propane-1-sulfonamide], the “CEACAM1 expression levels on cells” value in data set [1] (526mel, 624mel (mutated B-Raf), 0.1 μM and 1 μM, 2 to 48 hours, FIG. 3A-B) is listed as “dose-dependent effect”; in data set [6] it was “did not have any effect”; in data set [8], “no effect”. In data set [1] (B-Raf V600E 526mel melanoma cells, 1 μM, flow cytometry with MRG1, FIG. 5), the CEACAM1 expression entry is “down regulates CEACAM1 expression”. The “phosphorylation of ERK1/2 (pERK, Thr202/Tyr204)” value in data set [2] is reported as “no substantial effect”; in data set [3] (B-Raf V600E cells 624mel, sk-mel-5, 1 μM, 48 hours, FIG. 2), “almost completely abolishes the phosphorylation of ERK1/2”; in data set [3] (vemurafenib-sensitive 624mel, 160 nM, 24 hours, FIG. 4B), “almost completely abolishes the phosphorylation of ERK1/2”. Further, in data set [4], the “MAPK activity (phosphorylated ERK1/2)” value is “practically uninterrupted”. Further, in data set [5], half-maximal inhibition (IC50) was put at 0.64 nM. Moreover, in data set [7], the “sensitization of melanoma cells to cytotoxic T cells (cell killing by LDH release)” value is given as “significantly sensitizes melanoma cells to cytotoxic T cells”.
